Results reported in article PMC10856618, “Research on the Interaction Mechanism and Structural Changes in Human Serum Albumin with Hispidin Using Spectroscopy and Molecular Docking” (Molecules, 2024).

Biological target: T1, human serum albumin (HSA) (Homo sapiens, UniProt P02768)
T1 construct: gene ALB; commercial HSA (Solarbio), mature plasma protein, 585 residues, 66,500 Da
Assay: intrinsic fluorescence quenching titration (ex […] nm)
Type: binding
Conditions: 298 K, pH 7.4 Tris-HCl, 0.1 mol/L NaCl, 5 µmol/L HSA; n = 1.04; double-log; mainly site I (subdomain IIA)

T1 sequence (P02768 25-609): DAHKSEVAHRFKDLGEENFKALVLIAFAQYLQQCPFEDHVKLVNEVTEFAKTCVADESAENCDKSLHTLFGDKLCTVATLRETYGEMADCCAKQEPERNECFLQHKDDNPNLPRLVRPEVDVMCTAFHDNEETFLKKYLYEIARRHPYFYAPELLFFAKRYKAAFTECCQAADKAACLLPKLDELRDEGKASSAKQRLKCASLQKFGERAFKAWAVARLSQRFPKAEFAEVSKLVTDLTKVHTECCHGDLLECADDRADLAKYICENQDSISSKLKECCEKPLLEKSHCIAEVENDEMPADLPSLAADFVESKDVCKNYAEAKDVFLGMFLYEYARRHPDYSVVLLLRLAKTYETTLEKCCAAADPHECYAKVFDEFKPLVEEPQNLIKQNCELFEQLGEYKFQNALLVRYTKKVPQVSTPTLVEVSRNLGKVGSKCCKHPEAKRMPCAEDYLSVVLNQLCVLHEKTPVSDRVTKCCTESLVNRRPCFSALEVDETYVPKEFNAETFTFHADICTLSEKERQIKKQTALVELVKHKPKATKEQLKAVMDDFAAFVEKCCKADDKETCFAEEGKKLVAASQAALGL

- Ka (10^5 L/mol): 1.03 × 10^5 L/mol
Structure (SMILES): O=c1cc(O)cc(/C=C/c2ccc(O)c(O)c2)o1 [hispidin]
